Test results: patent US20030104507A1, “Method for detection of ATP” (priority 2001, published 2003)

Test system: ATPase activity endogenous to L929 cell lysate
Experiment: Detergent inhibition of ATPase endogenous to L929 cell lysate (ATP remaining by luciferase luminescence, 22° C.)
Assay type: biochemical
Parameters: key to Relative ATPase Activity, slope det/slope lysate: slope with detergent / slope without; ≥1.0 = 100% activity, 0.5 = 50%
Description: Three separate detergents in each of four detergent classes were tested: anionic [SDS (Sodium dodecyl sulfate), Bioterge (an α olefin sulfate), and sodium deoxycholate], nonionic [TRITON X-100, BigCHAP (N,N-bis(3-D-Gluconamidopropyl)cholamide) and THESIT (polyethylene glycol 400 dodecyl ether, Fluka, #88315)], cationic [BDDABr (Benzyldimethyldodecylammonium bromide), CTAB (Cetyltrimethylammonium bromide), and DTAB (dodecyltrimethylammonium bromide)] and zwitterionic [CHAPS (3[(3-Cholamidopropyl)dimethylammonio]propanesulfonic acid), CHAPSO (3-([3-Cholamidopropyl]dimethylammonio)-2-hydroxy-1-propanesulfonate), and Sulfobetaine 3-10 ([…]-N,N-dimethyl-3-ammonio-1-propanesulfonate)]. Detergents were obtained from Sigma, Fluka and Aldrich.
L929 cells (ATCC CCL-1; 1.5×10^5 cells/ml) in F12/DMEM (Hyclone, SH30023) containing 10% horse serum (Hyclone, SH30074) were frozen and thawed for four cycles to create a cell lysate. Then 50 μl of stock detergent solutions [10%, 5.0%, 1.0%, and 0.5% (w/v)] were separately added to 450 μl cell lysate, creating a final detergent concentration in the cell lysate sample of 1.0%, 0.5%, 0.1%, and 0.05%, respectively (these percentage values are those used in Tables D and E herein below). Control samples contained either lysate only or 1.0 μM ATP in 15 mM HEPES buffer (pH 7.5). All samples were incubated at 22° C. (room temperature) for the duration of the experiment.
At various timepoints, 20 μl from each sample/detergent mixture was added to a 96-well luminometer plate in triplicate, and then 100 μl of a solution (“luciferase-luciferin” or “L/L reagent”) containing 25 mM HEPES buffer (pH 7.5), 40 μg luciferase enzyme LucPpe2m146 (Promega, E140), 100 μM luciferin (Promega), and 10 mM MgSO4 was added to each well. The L/L reagent was stored at 4° C. for the duration of the experiment and then allowed to reach ambient temperature just before assaying. After mixing the contents of the plate, light output was measured with a Dynex MLX microtiter plate luminometer (Chantilly, Va.), 0.5 second reads per well with the first measurement taken five minutes after the detergent solution was combined with the sample. The average relative light units and the timepoint at which it was measured (rlu; Table D) and percent of remaining luciferase activity at the timepoint (Table E) are reported; controls were run with each set of experimental conditions as indicated. The cationic and anionic detergents were assayed on one day with one set of controls. The zwitterionic and nonionic detergents were assayed on a separate day with a separate set of controls. The DTAB at 0.5% was assayed on both days (1 and 2).
The experiment was performed as detailed in Example 1. The average relative light unit values and the percent of ATP remaining values are listed below in Table F and G respectively.
The log of the percent of ATP remaining after original timepoint values from Table E and Table G were plotted on the y axis against time (in minutes) on the x axis. The slope of the line generated by these values in the presence of detergent was divided by the slope of the line generated by the values in the absence of detergent (lysate control) resulting in the Relative ATPase Activity values listed below in Table H.
A relative activity value of 1.0 or greater indicates 100% cellular ATPase activity at the concentration of detergent tested. A relative activity value of 0.5 indicates a two-fold (or 50%) decrease in the level of cellular ATPase activity at the concentration of detergent tested when compared to the ATPase activity level in the absence of the detergent. A relative activity value of 0.2 indicates a five-fold (or 80%) decrease in the level of cellular ATPase activity at the concentration of detergent tested when compared to the ATPase activity level in the absence of the detergent.

## C[C@H](CCC(=O)NCCC[N+](C)(C)CCCS(=O)(=O)[O-])[C@H]1CC[C@H]2[C@@H]3[C@H](O)C[C@@H]4C[C@H](O)CC[C@]4(C)[C@H]3C[C@H](O)[C@]12C [CHAPS, 3[(3-Cholamidopropyl)dimethylammonio]propanesulfonic acid]
0.05% detergent, 5 min
  Average Relative Light Unit Values: 6356.62 rlu
  Percent ATP Remaining: 100%
0.05% detergent, 75 min
  Average Relative Light Unit Values: 2305.56 rlu
  Percent ATP Remaining: 36.3%
0.05% detergent, 169 min
  Average Relative Light Unit Values: 1143.02 rlu
  Percent ATP Remaining: 18.0%
0.05% detergent, 222 min
  Average Relative Light Unit Values: 500.80 rlu
  Percent ATP Remaining: 7.9%
0.05% detergent, 260 min
  Average Relative Light Unit Values: 240.81 rlu
  Percent ATP Remaining: 3.8%
0.05 percent detergent
  Relative ATPase Activity, slope det/slope lysate: 1.061
  Slope (log percent ATP remaining vs time in minutes): −0.0056
0.1% detergent, 5 min
  Average Relative Light Unit Values: 6515.77 rlu
  Percent ATP Remaining: 100%
0.1% detergent, 75 min
  Average Relative Light Unit Values: 2583.65 rlu
  Percent ATP Remaining: 39.7%
0.1% detergent, 169 min
  Average Relative Light Unit Values: 1236.53 rlu
  Percent ATP Remaining: 19.0%
0.1% detergent, 222 min
  Average Relative Light Unit Values: 448.96 rlu
  Percent ATP Remaining: 8.6%
0.1% detergent, 260 min
  Average Relative Light Unit Values: 284.18 rlu
  Percent ATP Remaining: 4.4%
0.10 percent detergent
  Relative ATPase Activity, slope det/slope lysate: 1.023
  Slope (log percent ATP remaining vs time in minutes): −0.0054
0.5% detergent, 5 min
  Average Relative Light Unit Values: 7368.91 rlu
  Percent ATP Remaining: 100%
0.5% detergent, 75 min
  Average Relative Light Unit Values: 4048.24 rlu
  Percent ATP Remaining: 54.9%
0.5% detergent, 169 min
  Average Relative Light Unit Values: 2548.39 rlu
  Percent ATP Remaining: 34.6%
0.5% detergent, 222 min
  Average Relative Light Unit Values: 1438.57 rlu
  Percent ATP Remaining: 19.5%
0.5% detergent, 260 min
  Average Relative Light Unit Values: 909.15 rlu
  Percent ATP Remaining: 12.3%
0.50 percent detergent
  Relative ATPase Activity, slope det/slope lysate: 0.688
  Slope (log percent ATP remaining vs time in minutes): −0.0036
1.0% detergent, 5 min
  Average Relative Light Unit Values: 7241.33 rlu
  Percent ATP Remaining: 100%
1.0% detergent, 75 min
  Average Relative Light Unit Values: 3816.06 rlu
  Percent ATP Remaining: 52.7%
1.0% detergent, 169 min
  Average Relative Light Unit Values: 2348.28 rlu
  Percent ATP Remaining: 32.4%
1.0% detergent, 222 min
  Average Relative Light Unit Values: 1322.30 rlu
  Percent ATP Remaining: 18.3%
1.0% detergent, 260 min
  Average Relative Light Unit Values: 809.22 rlu
  Percent ATP Remaining: 11.2%
1.00 percent detergent
  Relative ATPase Activity, slope det/slope lysate: 0.715
  Slope (log percent ATP remaining vs time in minutes): −0.0038

## C[C@H](CCC(=O)NCCC[N+](C)(C)CC(O)CS(=O)(=O)[O-])[C@H]1CC[C@H]2[C@@H]3[C@H](O)C[C@@H]4C[C@H](O)CC[C@]4(C)[C@H]3C[C@H](O)[C@]12C (stereo partly drawn) [CHAPSO, 3-([3-Cholamidopropyl]dimethylammonio)-2-hydroxy-1-propanesulfonate]
0.05% detergent, 5 min
  Average Relative Light Unit Values: 6396.53 rlu
  Percent ATP Remaining: 100%
0.05% detergent, 75 min
  Average Relative Light Unit Values: 2424.54 rlu
  Percent ATP Remaining: 37.9%
0.05% detergent, 169 min
  Average Relative Light Unit Values: 1124.83 rlu
  Percent ATP Remaining: 17.6%
0.05% detergent, 222 min
  Average Relative Light Unit Values: 480.09 rlu
  Percent ATP Remaining: 7.5%
0.05% detergent, 260 min
  Average Relative Light Unit Values: 238.80 rlu
  Percent ATP Remaining: 3.7%
0.05 percent detergent
  Relative ATPase Activity, slope det/slope lysate: 1.080
  Slope (log percent ATP remaining vs time in minutes): −0.0057
0.1% detergent, 5 min
  Average Relative Light Unit Values: 6549.85 rlu
  Percent ATP Remaining: 100%
0.1% detergent, 75 min
  Average Relative Light Unit Values: 2584.56 rlu
  Percent ATP Remaining: 39.5%
0.1% detergent, 169 min
  Average Relative Light Unit Values: 1210.14 rlu
  Percent ATP Remaining: 18.5%
0.1% detergent, 222 min
  Average Relative Light Unit Values: 558.69 rlu
  Percent ATP Remaining: 8.5%
0.1% detergent, 260 min
  Average Relative Light Unit Values: 280.84 rlu
  Percent ATP Remaining: 4.3%
0.10 percent detergent
  Relative ATPase Activity, slope det/slope lysate: 1.030
  Slope (log percent ATP remaining vs time in minutes): −0.0054
0.5% detergent, 5 min
  Average Relative Light Unit Values: 7422.26 rlu
  Percent ATP Remaining: 100%
0.5% detergent, 75 min
  Average Relative Light Unit Values: 4089.32 rlu
  Percent ATP Remaining: 55.1%
0.5% detergent, 169 min
  Average Relative Light Unit Values: 2581.01 rlu
  Percent ATP Remaining: 34.8%
0.5% detergent, 222 min
  Average Relative Light Unit Values: 1460.54 rlu
  Percent ATP Remaining: 19.7%
0.5% detergent, 260 min
  Average Relative Light Unit Values: 923.81 rlu
  Percent ATP Remaining: 12.4%
0.50 percent detergent
  Relative ATPase Activity, slope det/slope lysate: 0.685
  Slope (log percent ATP remaining vs time in minutes): −0.0036
1.0% detergent, 5 min
  Average Relative Light Unit Values: 7160.63 rlu
  Percent ATP Remaining: 100%
1.0% detergent, 75 min
  Average Relative Light Unit Values: 3803.84 rlu
  Percent ATP Remaining: 53.1%
1.0% detergent, 169 min
  Average Relative Light Unit Values: 2376.31 rlu
  Percent ATP Remaining: 33.2%
1.0% detergent, 222 min
  Average Relative Light Unit Values: 1332.97 rlu
  Percent ATP Remaining: 18.6%
1.0% detergent, 260 min
  Average Relative Light Unit Values: 840.57 rlu
  Percent ATP Remaining: 11.7%
1.00 percent detergent
  Relative ATPase Activity, slope det/slope lysate: 0.703
  Slope (log percent ATP remaining vs time in minutes): −0.0037
